Experimental data as given in patent US20190015379A1, “USE OF DIANHYDROGALACTITOL AND ANALOGS AND DERIVATIVES THEREOF, TOGETHER WITH RADIATION, TO TREAT NON-SMALL-CELL CARCINOMA OF THE LUNG AND GLIOBLASTOMA MULTIFORME AND SUPPRESS PROLIFERATION OF CANCER STEM CELLS” (DelMar Pharmaceuticals, Inc., priority 2014, published 2019).
Entries after “also recorded” stand apart in the source; their conditions may differ.

What was measured:
[1] = tested on: GBM cell lines SF188, U251, and T98G; test: Tumor growth inhibition in GBM cell lines (FIG. 29); assay type: cell-based, human; conditions: MGMT negative SF188 and U251, MGMT positive T98G
[2] = tested on: GBM; conditions: cited from earlier work
[3] = cited from earlier work
[4] = Tolerability in A549 tumor-bearing Rag2 mice (body weight, CBC, clinical observations)
Experimental: Tumor growth was monitored by measuring tumor dimensions with calipers beginning on the first day of treatment. Tumor length and width measurements were obtained each Monday, Wednesday, and Friday. Tumor volumes were calculated according to the equation L×W^2/2 with the length (in mm) being defined as the longer axis of the tumor. Animals were weighed at the time of tumor measurement. Tumors were allowed to grow to a maximum of 800 mm^3 before termination.
All animals had blood collected by cardiac puncture at termination for CBC (complete blood count) with differentiation.
In particular, signs of ill-health were based on body weight loss, change in appetite, and behavioral signs such as altered gait, lethargy, and gross manifestations of stress. If signs of severe toxicity or tumor-related illness were seen, the animals were terminated by isoflurane overdose followed by CO2 asphyxiation, and a necropsy was performed to assess other signs of toxicity. The following organs were examined: liver, gall bladder, spleen, lung, kidney, heart, intestine, lymph nodes, and bladder. Any unusual findings were noted.

[5] = tested on: CSC and non-CSC cultures derived from primary GBM tissue; test: Cell cycle analysis (propidium iodide staining, FACS) in primary GBM cultures; assay type: cell-based, human
Experimental: (§1) “GAPDH” refers to glyceraldehyde-3-phosphate dehydrogenase as a control. For the cell cultures, CSCs were cultured in NSA media supplemented with B27, EGF and bFGF. Non-CSCs were grown in DMEM:F12 with 10% FBS. MGMT methylation and protein expression analysis of each culture was characterized. TMZ or VAL-083 was added to the cultures in the indicated concentrations. Depending on the experiment, cells were also irradiated with 2 Gy in a Cesium irradiator. For assays, cell cycle analysis was performed with Propidium Iodide staining and FACs analysis. Cell viability was analyzed with CellTiter-Glo™ and read on a Promega GloMax™. […] In FIG. 4, “1° GBM” refers to primary glioblastoma multiforme cell cultures.
In FIG. 16, cells were treated with either increasing doses of TMZ (5, 50 100 and 200 μM) or dianhydrogalactitol (“VAL-083”) (1, 5, 25 and 100 μM) and cell cycle analysis was performed 4 days post treatment.
Additional experiments were performed to test the effect of the duration of drug administration. […] Dianhydrogalactitol was left on for the duration of the treatment.

[6] = tested on: CSC and non-CSC cultures derived from primary GBM tissue; test: Cell viability (CellTiter-Glo) in primary GBM cultures with or without radiation; assay type: cell-based, human
Experimental: as §1
In FIG. 17, TMZ (50 μM) or dianhydrogalactitol (“VAL-083”) (5 μM) were added to primary CSC cultures at various doses with or without irradiation (2 Gy). Shown are cell cycle profile analysis at day 4 post treatment (A,C) and cell viability analysis at day 6 post treatment (B,D) for the paired CSC (A,B) and non-CSC (C,D) 7996 culture.
In FIG. 18, dianhydrogalactitol (“VAL-083”) was added to primary CSC cultures at various doses (1, 2.5 and 5 μM) with or without irradiation (2 Gy). Shown are cell cycle profile analysis at day 4 post treatment (A,C) and cell viability analysis at day 6 post treatment (B,D) for two different patient-derived CSC cultures, 7996 (A,B) and 8565 (C,D).

[7] = tested on: normal human neural stem cells; conditions: neurosphere growth assays; Hu et al. 2012; cited from earlier work
[8] = in vivo; cited from earlier work

dianhydrogalactitol
inhibition of tumor growth compared with TMZ [1]: better than TMZ for inhibiting tumor growth
Median O.S. (XRT + Chemo) ([2]; GBM, Eagan (1979), Stupp (2005)): 67 weeks
efficacy in combination with radiation versus radiation alone ([2]; cumulative IV dose of 125 mg/m^2 in a 35 day cycle, brain cancer, Eagan 1979): superior to radiation alone
Recovery ([3]; GBM chemotherapy, historical data): Within 7-8 days
DLT ([3]; human, in vivo): Hematologic
Nadir ([3]; human, in vivo): 18 to 21 days
Other Severe Toxicities Reported (>2%) ([3]; human, in vivo): None
body weight loss ([4]; dianhydrogalactitol 6 mg/kg (group 5)): body weight loss was observed
tolerability of the dosage ([4]; dianhydrogalactitol 6 mg/kg, only 3 of 9 scheduled doses administered): significant weight loss and morbidity
hemoglobin (g/L), CBC at termination, versus untreated control ([4]; groups 4 or 5 (dianhydrogalactitol 3 or 6 mg/kg)): Statistical significance (p<0.05)
cell death, concentration compared with temozolomide ([5]; CSC and non-CSC cultures, FACS profiles (FIGS. 7-9)): cause cell death at lower concentrations than temozolomide
cell cycle arrest in TMZ-resistant cultures ([5]; VAL-083 1, 5, 25 and 100 μM, cell cycle analysis 4 days post treatment, paired CSC and non-CSC): exhibited sensitivity to VAL-083, even at single-micromolar doses
cell cycle arrest and loss of cell viability, summary ([5]; all cultures tested, independent of MGMT status and stem versus non-stem): cell cycle arrest and loss of cell viability in nearly all cultures tested
effect of duration of drug exposure on cell cycle ([5]; washed out after 3 hours versus left on, 7996 GNS, 8279 GNS, 7996 ML, 8565 ML): less effect when washed out after 3 hours
effect in combination with radiation ([6]; 1, 2.5 and 5 μM with or without irradiation (2 Gy), CSC cultures 7996 and 8565): acts as a radiosensitizer in primary CSC cultures; also recorded: potential additive effect of dianhydrogalactitol with radiation
reduction in cell viability with dianhydrogalactitol plus radiation ([6]; 7996 GNS (CSC), low concentration such as 1 μM, radiation): 20%
cell viability in TMZ-resistant cultures ([6]; VAL-083 5 μM, paired CSC and non-CSC 7996 culture, viability day 6 post treatment): decreases cell viability in TMZ-resistant cultures
effect on normal human neural stem cells [7]: minimal effect
blood-brain barrier passage [8]: readily crosses the blood-brain barrier and accumulates in brain tissue
